# Results: patent EP3118219A1, “NICOTINIC CHANNEL SUBUNITS OF […] AND THEIR USES THEREOF” (priority 2015, dated 2017)
# pEC50: −log10 of the molar value.
# Legend:
# [1] = molecular target: T1, Apis mellifera nicotinic acetylcholine receptor Am-nAChRα7 (nAChR α7 subunit, SEQ ID NO: 7), expressed with ric3 (Apis mellifera, UniProt A0ACM8Q2V8); assay: Two-electrode voltage-clamp dose-response on Xenopus laevis oocytes expressing the nAChRα7 subunit (with ric3); format: cell-based
# T1 sequence (A0ACM8Q2V8 21-555): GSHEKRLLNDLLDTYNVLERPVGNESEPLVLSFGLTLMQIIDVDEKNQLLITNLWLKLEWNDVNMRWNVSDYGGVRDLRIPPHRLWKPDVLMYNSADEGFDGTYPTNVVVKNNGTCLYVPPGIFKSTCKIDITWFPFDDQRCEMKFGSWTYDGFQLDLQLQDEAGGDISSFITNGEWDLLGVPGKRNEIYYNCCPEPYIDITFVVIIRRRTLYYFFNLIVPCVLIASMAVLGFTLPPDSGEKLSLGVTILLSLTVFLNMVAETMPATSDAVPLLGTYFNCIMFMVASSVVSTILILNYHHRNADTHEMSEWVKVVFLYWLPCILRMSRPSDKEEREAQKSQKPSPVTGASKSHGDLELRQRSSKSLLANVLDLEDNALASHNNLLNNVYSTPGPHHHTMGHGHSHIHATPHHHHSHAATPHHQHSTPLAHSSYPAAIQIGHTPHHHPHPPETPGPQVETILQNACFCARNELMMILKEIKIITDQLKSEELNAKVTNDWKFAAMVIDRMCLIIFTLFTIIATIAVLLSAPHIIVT
# Protocol: (§1) For example, ric3 (from C.elegans, the nucleic acid sequence being SEQ ID NO: 64 and the amino acid sequence being SEQ ID NO: 65, or honeybee) is clearly necessary to get a reliable expression of the nAChR α7 subunit and a response to ACh, while for the nAChRα5 subunit a cocktail of emc6, unc50 and unc74 chaperone proteins improves expression with response amplitude between 0.1 to several µA for ACh concentration between 1 to 1000µM (Figure 2). In the case of the nAChRα3 subunits, expression can be obtain either alone, or in combination with different cocktails of chaperone or with the vertebrate β2 nAChR subunits. Each of these combinations has a specific affinity for ACh. […]
# (§2) Typically, an oocyte, injected 2 to 5 days before with a given mixture of RNA is placed in the recording chamber filled with the desired solution (usually Na100). […] Both electrodes are then impaled into the oocyte and the resting membrane potential is measured (typically -30/- 50 mV). […] Sometime, the effect of a test compound can be determined directly, by applying 50 µl of the compound directly to the bath (with the main perfusion stopped) at the final working concentration (usually 100-1000 µM), after proper dilution from a stock solution (usually 10 mM in water or DMSO or ethanol) into the desired recording solution. […]
# [2] = tested on: Apis mellifera nicotinic acetylcholine receptor Am-nAChRα5 (nAChRα5 subunit, SEQ ID NO: 5), expressed with unc74+unc50+emc6; assay: Two-electrode voltage-clamp dose-response on Xenopus laevis oocytes expressing the nAChRα5 subunit (with unc74+unc50+emc6); format: cell-based; details: current in Xenopus oocytes, dose-response curve; traces at 500 µM (Figure 4)
# Protocol: as §1, §2
smiles,measurement,setting,value
CN/C(=N\[N+](=O)[O-])NCc1cnc(Cl)s1 [clothianidin],pEC50,[1],~5.00
same,agonist efficacy compared with ACh,[1]; dose-response curves of ACh and clothianidin recorded on the same oocyte (Figure 4C),less effective agonist than ACh
same,sensitivity to clothianidin,[2],completely insensitive
